Data set [1] deals with C57.BL/6 mice, carrageenan-induced footpad edema. Description: Carrageenan-induced footpad edema model. To be noted: 3 mg/kg, p.o. It counts as in vivo, mouse. The method, then: Carrageenan-Induced Footpad Edema is an acute rodent model of innate immune function. Intradermal (ID) injection of an inflammatory agent causes a rapid influx of neutrophils and fluid edema, which peaks at approximately 4 hours, followed by an influx of macrophages and monocytes, which peaks at approximately 48 hours. C57.BL/6 mice (8-10-week-old, Jackson Laboratories, Bar Harbor, Me.) were injected ID in the rear footpad with 30 μL of either PBS (left) or λ-carrageenen (Sigma Aldrich, St. Louis, Mo.) in PBS (right) at a concentration of 5.0 mg/mL (150 μg/mouse). […] Significant difference for paw thickness was determined by comparing mean paw swelling for each treatment group to vehicle in a Student's two-tailed t-test.
The endpoint measured was the difference in paw swelling (edema) between right and left paws 4 hours after treatment.

Data set [2] concerns the target T1, human TNFα (Homo sapiens, UniProt P01375). As to the kind of experiment: BIAcore assay, TNFα binding kinetics and affinity. The method, then:
The BIACORE assay (BIAcore, Inc, Piscataway, N.J.) determines the affinity of antibodies or DVD-Ig with kinetic measurements of on-rate and off-rate constants. Binding of antibodies or DVD-Ig to a target antigen (for example, a purified recombinant target antigen) is determined by surface plasmon resonance-based measurements with a BIAcore® 3000 instrument (BIAcore® AB, Uppsala, Sweden) using running HBS-EP (10 mM HEPES [pH 7.4], 150 mM NaCl, 3 mM EDTA, and 0.005% surfactant P20) at 25° C. All chemicals are obtained from BIAcore® AB (Uppsala, Sweden) or otherwise from a different source as described in the text. […] The association and dissociation rate constants, kon (M^−1 s^−1) and koff (s^−1) are determined under a continuous flow rate of 25 μl/min. […] The equilibrium dissociation constant (M) of the reaction between antibodies or DVD-Igs and the target antigen is then calculated from the kinetic rate constants by the following formula: KD=koff/kon. Binding is recorded as a function of time and kinetic rate constants are calculated. In this assay, on-rates as fast as 10^6M^−1 s^−1 and off-rates as slow as 10^−6 s^−1 can be measured. […]

The subject of data set [3] is human TNFα transgenic B6.Cg(SJL)-Tg(TNF) N21+ mice. As to the kind of experiment: Human TNFα transgenic induced arthritis model. To be noted: 30 mg/kg. It counts as in vivo, mouse. The procedure: Human TNFα transgenic B6.Cg(SJL)-Tg(TNF) N21+ mice (40 male and 40 females) (Taconic, Hudson, N.Y.) at 4 weeks age were divided into 10 groups of 8 mice (4 male and 4 females/group). Each week, starting from week 5 until week 12 of age the morphology of the rear ankle joints of the mice were evaluated and scored for signs and symptoms of arthritis. Arthritic scores were assigned as follows. • 0=no arthritis (normal appearance and flexion) • 1=mild arthritis (joint distortion) • 2=moderate arthritis (swelling, joint deformation); and • 3=severe arthritis (ankylosis detected on flexion and severely impaired movement)
Animals were randomized to achieve approximately similar mean arthritic score (MAS) for all groups at week 9 at first signs of symptoms. Animals were then treated i.p. twice a week starting from week 10 of age until week 12 of age. Mice in group 1 served as untreated control were administered PBS.

The next data set can be described thus: Dynamic light scattering. Format: physicochemical. The conditions noted are these: 2 mg/mL in PBS. The procedure:
Samples were centrifuged at 10,000 RPM for 10 minutes before measured on DynaPro-801 Dynamic light scattering system.

The target of data set [4] is T1, human TNFα. As to the kind of experiment: L929 assay (TNFα induced death of L929 cells). It counts as cell-based, mouse. The conditions noted are these: read-out: TNFα Cellular Potency IC50.

pIC50, pKd: −log10 of the molar value.

As a reminder, the % Inhibition is the change of the read-out against control, counted positive when it falls. Low readings indicate little suppression, high ones strong suppression. By pKd is commonly meant the Kd on a negative log10 scale, so that one unit is a factor of ten. The pIC50 is −log10 of the IC50, conventionally taken in molar units.

T1 sequence (P01375 77-233 limits assumed): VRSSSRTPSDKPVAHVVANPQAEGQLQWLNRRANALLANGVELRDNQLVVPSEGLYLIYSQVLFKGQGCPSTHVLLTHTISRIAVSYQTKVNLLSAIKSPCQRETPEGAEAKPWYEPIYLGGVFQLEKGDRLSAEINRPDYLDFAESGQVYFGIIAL

Take `COc1ccc2c(c1)c(CC(=O)O)c(C)n2C(=O)c1ccc(Cl)cc1` [Indomethacin, reference compound]: the “% Inhibition” value in data set [1] was determined as 57 ± 3.5%. In data set [1] (4 hours post carrageenan), the “Δ Paw Swelling” value is reported as 0.486 ± 0.03 mm.
With “D2E7: human anti-TNFα monoclonal antibody, parent of the DVD-Igs [reference compound]”, in the data set with human TNFα [2], the pKd was 10.57. Moreover, in data set [3], the “maximal efficacy (inhibition of AUC of the mean arthritis score)” value came to 59%. The same compound had a hydrodynamic radius in the data set “Dynamic light scattering” of 5.46 nm. In addition, in the data set with human TNFα [4], the pIC50 is 10.39.
